Source: patent publication US20220296628A1, “RNA COMBINATIONS AND COMPOSITIONS WITH DECREASED IMMUNOSTIMULATORY PROPERTIES” (CureVac AG, priority 2019, published 2022)

Test system: mice (strain 129SV)
Experiment: Serum cytokines by CBA 6 hours post LNP injection
Assay type: in vivo, mouse
Details: 6 hours post i.v. LNP injection, in a dose-dependent manner (oligo 20% or 6.7% mass), compared to PpLuc mRNA only (FIG. 4A)
Method: In supernatants collected from PBMC stimulated without or with 2-O-methylated oligonucleotide, the concentrations of IFN-α, IFN-γ, TNF, were measured by Cytometric Bead Array (CBA) according to the manufacturer's instructions (BD Biosciences) using the following kits: Human Soluble Protein Master Buffer Kit (catalog no. 558264), Assay Diluent (catalog no. 560104), Human IFN-α Flex Set (catalog no. 560379), Human IFN-γ Flex Set (catalog no. 558269), Human TNF Flex Set (catalog no. 560112); all kits from BD Biosciences. The data was analyzed using the FCAP Array v3.0 software (BD Biosciences). For preparation of Lipid nanoparticles (LNP) containing both PpLuc mRNA and 2-O-methylated oligonucleotide, first the 2′-O-methylated oligonucleotide was added to PpLuc mRNA at a weight percentage of either 20% or 6.7% (see Table 3). LNP containing PpLuc mRNA either with or without admixture of 2-O-methylated oligonucleotide were prepared using cationic lipid, cholesterol, PEG-lipid and a neutral lipid. The mRNA was diluted to 1 g/L in citrate buffer, pH 4. The ethanolic lipid solution was mixed with the aqueous RNA solution at a ratio of 1:3 (vol/vol) using a Nanoassemblr (PrecisionNanoSystems). The ethanol was then removed and the buffer replaced by 10 mM HEPES, pH 7.4 comprising 9% Sucrose by dialysis. Finally, the LNP-formulated RNA was adjusted to 0.2 g/L. For in vivo experiments, 8 weeks old female mice (around 25 g, strain 129SV) were injected with the various LNP formulations (see tables 4 and 5). 4 animals were used per group. 10 μg or 30 μg of mRNA formulated with or without 2′-O-methylated oligonucleotide were intravenously injected at a concentration of 0.2 g/l. Bioluminescence imaging was performed 6 hours and 24 hours post LNP injection. Blood was sampled 6 hours post LNP injection and terminally 24 hours post LNP injection. Immediately thereafter, mice were sacrificed, livers collected and placed in 1.5 ml PP tubes, frozen and stored until analysis (<−70° C.). To analyse the influence of the 2′-O-methylated oligonucleotide on immunostimulation, the concentrations of IFNγ, TNFα, IL-6, MIP-1β, RANTES, and MCP1 were measured in sera from blood collected 6 hours post LNP injection by Cytometric Bead Array (CBA), performed as described in paragraph 2.3. […] To further assess the influence of the 2′-O-methylated oligonucleotide on immunostimulation, the concentration of IFNα was measured in sera from blood collected 24 hours post LNP injection by ELISA.

5′-GAG CGmG CCA-3′ (GAGCNGCCA; 2'-O-methyl guanosine at position 5; 9mer oligonucleotide; modified_base (5)..(5) n can be any nucleotide, wherein the nucleotide is 2-O-methylated, preferably a 2-O-methylated guanosine) [Gm18, 9-mer 2′-O-methylated RNA oligonucleotide; position 5 is 2′-O-methylated guanosine (Gm); antagonist of TLR7 and 8]
strongly decreases the release: release of IFNγ in sera | release of IL-6 in sera | release of MCP1 in sera | release of MIP-1β in sera | release of RANTES in sera | release of TNFα in sera
